The conditions of series [1]: dimeglumine salt; cited from earlier work.
For series [2] the following is noted: cited from earlier work.
In the next series the test system is lymphatic system. Conditions: cited from earlier work.
Series [3] in a line: Stability to light and air (iodine cleavage). Type of series: physicochemical. To be noted: comparison table of A, B and C.
For a further series, the system named is lymphatic system of dogs. Kind of series: Lymphography comparison of A, B and C after direct and indirect administration. Type of series: in vivo. On the procedure:
The following table compares the advantageous effects of the compounds of this invention in lymphography, using as test substances thiodipropionic acid bis[3,5-bis-(2,3-dihydroxypropyl-N-methylcarbamoyl)-2,4,6-triiodoanilide] (A) and 4,4,6,6-tetramethyl-4,6-disila-5-oxanonanedioic acid bis[3,5-bis(2,3-dihydroxypropyl-N-methylcarbamoyl)-2,4,6-triiodoanilide] (B) in comparison with the fatty acid ethyl ester of iodinated oleum papaveris (C). The test results were determined on dogs using testing methods conventional in lymphography after direct and indirect administration.

[4] abbreviates: dogs, direct and indirect administration.

Data on 5 molecules can be found in US4367216A, “Triiodinated 5-aminoisophthalic acid derivatives” (Schering Aktiengesellschaft, priority 1979, dated 1983).

Structures are written as SMILES.

Take `CNC(=O)c1c(I)c(NC(=O)CCCCC(=O)Nc2c(I)c(C(=O)O)c(I)c(C(=O)NC)c2I)c(I)c(C(=O)O)c1I` [iocarmic acid]: in series [1], the “Concentration in the urine” value was “increased”. For the same molecule, the “Osmotic pressure compared with monomers” value in series [2] (dimeglumine salt) is “somewhat lower osmotic pressure”.

Consider `CC(=O)Nc1c(I)c(C(=O)N[C@H]2C(O)O[C@H](CO)[C@@H](O)[C@@H]2O)c(I)c(N(C)C(C)=O)c1I` (stereo partly drawn) [metrizamide], for which, in series [2] (solution of 300 mg iodine/ml, blood 7.5 atmospheres), the Osmotic pressure is on record as 12 atmospheres. For the same molecule, the Usefulness for lymphography result in the series on lymphatic system (in vivo) was “useless for lymphography”.

For `CN(CC(O)CO)C(=O)c1c(I)c(NC(=O)CC[Si](C)(C)O[Si](C)(C)CCC(=O)Nc2c(I)c(C(=O)N(C)CC(O)CO)c(I)c(C(=O)N(C)CC(O)CO)c2I)c(I)c(C(=O)N(C)CC(O)CO)c1I` (stereo not drawn) [B, 4,4,6,6-tetramethyl-4,6-disila-5-oxanonanedioic acid bis[3,5-bis(2,3-dihydroxypropyl-N-methylcarbamoyl)-2,4,6-triiodoanilide]], the Stability result in series [3] is given as “Stable”. Also, in the series with lymphatic system of dogs (setting [4]), the “Compatibility (embolism)” value is recorded as “No Embolisms” and the “Residence Time in the Body” value is on record as “Hours”.

`CC(=O)NCc1c(I)c(NC(C)=O)c(I)c(C(=O)O)c1I` [iodamide]: in the series on lymphatic system (crystalline suspensions, inflammation at the injection site and in the lymphatic system), the Compatibility entry is on record as “insufficient compatibility”. Moreover, the Excretion period entry in the series on lymphatic system (in vivo) is given as “days to weeks”.

Consider `CN(CC(O)CO)C(=O)c1c(I)c(NC(=O)CCSCCC(=O)Nc2c(I)c(C(=O)N(C)CC(O)CO)c(I)c(C(=O)N(C)CC(O)CO)c2I)c(I)c(C(=O)N(C)CC(O)CO)c1I` (stereo not drawn) [A, thiodipropionic acid bis[3,5-bis-(2,3-dihydroxypropyl-N-methylcarbamoyl)-2,4,6-triiodoanilide]], for which the Stability result in series [3] was “Stable”. In addition, in the series with lymphatic system of dogs (dog, in vivo), the “Compatibility (embolism)” value was “No Embolisms” and the “Residence Time in the Body” value is listed as “Hours”.
